In US9388124B2, “Ingenol-3-acylates I” (LEO LABORATORIES LIMITED, priority 2010, dated 2016):
Where two headings read alike, the source gives them in different places.

Key:
Type in all cases: cell-based
[1] = system: PMN's (polymorphonuclear leukocytes); assay: Neutrophil oxidative burst assay; conditions: Leukocyte, 40 min, read-out: Neutrophil oxidative burst Rel EC50 range
Protocol: Neutrophil Oxidative Burst Assay:
PMN's (polymorphonuclear leukocytes) were isolated and purified from fresh buffy coats by sequential sedimentation, density centrifugation and lysis of contaminating erythrocytes. Buffy coats were incubated with 2% methocel for 30-45 min to differentially sediment red blood cells. The leukocyte-rich supernatant was transferred to lymphoprep tubes to remove mononuclear cells by density centrifugation (400×g, 30 min). The pellet was resuspended and any remaining erythrocytes lysed using 0.2% NaCl for 30 sec before restoring isotonicity by the addition of 1.2% NaCl. This step was repeated until the cell pellet appears relatively free of red blood cells. Cells were resuspended in DPBS (Dulbecco's Phosphate Buffered Saline) (w.o. Ca^2+, Mg^2+) and the concentration adjusted to 1.4×10^6 cells/ml in HBSS (Hanks Balanced Salt solution) (w Ca^2+, Mg^2+) containing 0.1% BSA (Bovine Serum Albumin) and 5 mM glucose just prior to assay initiation. Titrated reference and test compounds were pre-mixed with HE (Hydroethidine) (10 μM final assay concentration) before addition to 96-well plates containing 2.5×10^5 cells. Following 40 min incubation at RT, changes in the respiratory burst was estimated by measuring fluorescence at 579 nm (excitation: 485 nm) using an Envision plate reader.
Test compound titration curves were fitted to a four-parameter sigmoidal curve after normalizing the effect of the test compound to the effect of the positive control (5×10^−7 M PEP0005). Rel EC50 denotes the concentration of test compound producing an effect that is midway between the fitted top and bottom. Abs EC50 is the concentration of test compound that provokes a response corresponding to 50% of the maximal effect associated with the positive control (5×10^−7 M PEP0005).

[2] = system: Primary human epidermal keratinocytes, HeKa; assay: HeKa cytokine release (IL-8) assay
Protocol: HeKa Cytokine Release (IL-8) Assay:
Primary human epidermal keratinocytes, HeKa, were seeded (10.000 cells/well) in 96-well plates the day before the assay. Test compounds were diluted in DMSO (dimethyl sulfoxide) and further diluted in assay medium and pipetted into wells of 96 well-plates containing HeKa cells. The plates were incubated for 6 h at 37° C. in humidified air with 5% CO2. Plates were centrifuged briefly to spin down cells at 4° C., the supernatant was removed and analysed by Meso Scale Discovery (MSD) 4-spot cytokine assay (Pro-inflammatory II Ultra Sensitive kit, MSD, MD, USA). The MSD assay employs a sandwich immunoassay format where capture antibodies are coated in a patterned array on the bottom of the wells of a 4-Spot-Multi-MSD plate. Standard samples were incubated in the MULTI-SPOT plates as well, and the cytokine (IL-8) binds to its corresponding capture antibody spot. The cytokine level was quantitated on a SECTOR™ Imager using a cytokine-specific Detection Antibody labelled with MSD SULFO-TAG™ reagent.
Test compound titration curves were fitted to a four-parameter sigmoidal curve after normalizing the effect of the test compound to the effect of the positive control (1.5×10^−7 M PEP0005). Rel EC50 denotes the concentration of test compound producing an effect that is midway between the fitted top and bottom.

[3] = system: HeLa cells; assay: Necrosis assay; conditions: Homo sapiens, 0.5 h, read-out: HeLa Necrosis EC50 range
Protocol: HeLa cells (ATCC CCL-002) were grown in minimal essential medium (Invitrogen catalog no. 42360) containing 10% fetal bovine serum, 100 IU/ml penicillin and 100 μg/ml streptomycin. 4,000-6,000 cells were seeded into 96-well black ViewPlates-plates, clear bottom, (Perkin Elmer) in 100 μl medium and incubated overnight. Compounds were dissolved and pre-diluted in DMSO in 96-well polypropylene plates (Greiner) in a concentration range of 15 μM to 600 μM. At the time of the experiment cell plates were placed on heating blocks at 37° C., medium was removed and 40 μl fresh, pre-warmed medium was added per well. Cells were incubated for 15 min before addition of compounds. In parallel, 3 μl of compounds were diluted with 197 μl growth medium on a Tecan freedom-EVO pipetting station using 250 μl/s pipetting speed, in order to ensure effective mixing of the highly concentrated compound solutions with the aqueous phase. These pre-dilution plates were then equilibrated on heating blocks at 37° C. for 10 min. 80 μl pre-diluted compound were transferred manually to the corresponding wells containing HeLa cells yielding compound concentrations of 10 μM to 400 μM. Control conditions were 1% DMSO in growth medium (100% viability) and 400 μM ingenol mebutate in growth medium (0% viability). Plates were incubated on the heating blocks at 37° C. for 30 min. At the end of the incubation 10 μl PrestoBlue reagent (Invitrogen) were added to each well, plates were sealed with black seal, followed by incubation at 37° C. for 10 min with gentle shaking (150 rpm). Subsequently, plates were placed at room temperature for 20-30 min. Plates were read immediately after on an Envision Fluorescence reader (Perkin Elmer) with excitation at 535 nm and emission at 630 nm. Test compound titration curves were fitted to a four-parameter sigmoidal curve after normalizing the effect of the test compound to the effect of the positive control (4 10^−4 M PEP0005/ingenol mebutate). AbsEC50 denotes the concentration of test compound producing 50% effect.

Row | Compound | EC50 ([1]; PMNs, 40 min at RT, hydroethidine fluorescence, normalized to 5×10^−7 M PEP0005) | EC50 ([2]; HeKa cells, 6 h at 37° C., MSD IL-8, normalized to 1.5×10^−7 M PEP0005, read-out: HeKa cytokine release (IL-8) Rel EC50 range) | EC50 ([3]; HeLa cells, 30 min at 37° C., PrestoBlue, AbsEC50, normalized to 4 10^−4 M PEP0005/ingenol mebutate) | EC50 [1] | EC50 ([2]; HEKa, 6 h, read-out: HeKa cytokine release (IL-8) Rel EC50 range) | EC50 ([3]; HeLa)
1 | C/C=C(\C)C(=O)O[C@H]1C(C)=C[C@]23C(=O)[C@@H](C=C(CO)[C@@H](O)[C@]12O)[C@H]1[C@@H](C[C@H]3C)C1(C)C [Compound 111, Ingenol 3-tiglate] | < 0.02 µM | 0.02 to 0.1 µM | < 350 µM |  |  | 
2 | CCC(CC)C(=O)O[C@H]1C(C)=C[C@]23C(=O)[C@@H](C=C(CO)[C@@H](O)[C@]12O)[C@H]1[C@@H](C[C@H]3C)C1(C)C [Compound 109, Ingenol 3-(2-ethyl-butanoate)] |  |  |  | < 0.02 µM | < 0.02 µM | 150 to 350 µM
